Counter-ions that a name gives are not always drawn. Like-named read-outs stand apart in the source and are kept apart here.
Test system: Ixodes ricinus
Experiment: Oral acaricidal test on ticks in membrane feeding wells with treated blood
Format: in vivo
Conditions: for mortality at 1 ppm / mortality at 10 ppm / mortality at 100 ppm: Ixodes ricinus, po; for average percentage of affected adult ticks (convulsion, morbidity or death of ticks): 100 ppm oral
Experimental: A laboratory study was conducted to determine the oral acaricidal properties of three compounds according to the invention (SN0305, SN0306 and SN0307) against Ixodes ricinus. Each compound was tested at 1, 10 and 100 ppm, and compared to a negative control corresponding to solvent alone (0.1% DMSO). Amitraz at 100 ppm was used as a positive control.
The Ixodes ricinus ticks (nymphs and adults) were placed for 24 hours on a membrane in feeding wells containing blood mixed with the tested compounds. Tick mortality (number of dead, moribund, or unaffected ticks in each well), attachment to the membrane (number of ticks attached/detached in each well), and the behavior (presence or absence of twitches) were examined 1, 3, 6, 12, 24, 48, 72, and 96 hours after the onset of tick exposure to the compounds.
Ticks (Ixodes ricinus) were collected. Collected adult females were kept separate from the nymphs and both were placed in sterile tubes in a humidity chamber to provide ˜80% humidity and 17° C. Only healthy ticks (females/nymphs) were chosen for the experiment.
Batches of 12 adults or nymphs were inserted into the feeding wells. After about 24 hours, their attachment was examined with a brush.
The efficiency of three compounds (SN0305, SN0306 and SN0307), each tested at three concentrations (1, 10, 100 ppm), was compared to the solvent control (0.1% DMSO, Sigma-Aldrich D-5879; Lot 101K0028) and to the positive control (Amitraze at 100 ppm).
Silicone-coated membranes with a thickness comprised between 110 and 140 μm were used for the construction of the feeding units.
Feeding units (sterilized acrylic glass tubes) were placed in feeding wells made of sterilized six-well plates.
3.1 ml of sterile 10^−3 M ATP-enriched blood was applied to each feeding well. Feeding wells were then inserted into a heated water bath (FIG. 12) and maintained at 37° C.±2° C.
Stock solutions of 100,000 ppm were prepared and tenth dilutions were carried out in 0.1% DMSO to reach the desired concentrations. After tick attachment (24 hours after placing the ticks in the feeding wells), 3.1 μl of the solutions were added to each feeding well containing 3.1 ml of blood. Blood was changed after 12 hours with fresh supplementation of the compounds to be tested. The ticks were exposed to the product for a total of 24 hours, after which the blood was again changed to fresh, untreated blood.
Tick mortality (number of dead, moribund or unaffected ticks in each well), attachment (number of attached/detached ticks in each well) and behavior (presence, absence and intensity of convulsions) were examined 1, 3, 6, 12, 24, 48, 72, and 96 hours after the start of tick exposure to the compound.

[1] = adult ticks, 1 h, read-out: average percentage of adult tick mortality (moribund or dead adult ticks)
[2] = adult ticks, 3 h, read-out: average percentage of adult tick mortality (moribund or dead adult ticks)
[3] = adult ticks, 6 h, read-out: average percentage of adult tick mortality (moribund or dead adult ticks)
[4] = adult ticks, 12 h, read-out: average percentage of adult tick mortality (moribund or dead adult ticks)
[5] = adult ticks, 24 h, read-out: average percentage of adult tick mortality (moribund or dead adult ticks)
[6] = adult ticks, 48 h, read-out: average percentage of adult tick mortality (moribund or dead adult ticks)
[7] = adult ticks, 72 h, read-out: average percentage of adult tick mortality (moribund or dead adult ticks)
[8] = adult ticks, 96 h, read-out: average percentage of adult tick mortality (moribund or dead adult ticks)
[9] = adult ticks, 100 ppm, 1 h, read-out: average percentage of adult tick mortality (moribund or dead adult ticks)
[10] = adult ticks, 100 ppm, 3 h, read-out: average percentage of adult tick mortality (moribund or dead adult ticks)
[11] = adult ticks, 100 ppm, 6 h, read-out: average percentage of adult tick mortality (moribund or dead adult ticks)
[12] = adult ticks, 100 ppm, 12 h, read-out: average percentage of adult tick mortality (moribund or dead adult ticks)
[13] = adult ticks, 100 ppm, 24 h, read-out: average percentage of adult tick mortality (moribund or dead adult ticks)
[14] = adult ticks, 100 ppm, 48 h, read-out: average percentage of adult tick mortality (moribund or dead adult ticks)
[15] = adult ticks, 100 ppm, 72 h, read-out: average percentage of adult tick mortality (moribund or dead adult ticks)
[16] = adult ticks, 100 ppm, 96 h, read-out: average percentage of adult tick mortality (moribund or dead adult ticks)
[17] = nymphs, 1 h, read-out: average percentage of mortality of tick nymphs (moribund or dead nymphs)
[18] = nymphs, 3 h, read-out: average percentage of mortality of tick nymphs (moribund or dead nymphs)
[19] = nymphs, 6 h, read-out: average percentage of mortality of tick nymphs (moribund or dead nymphs)
[20] = nymphs, 12 h, read-out: average percentage of mortality of tick nymphs (moribund or dead nymphs)
[21] = nymphs, 24 h, read-out: average percentage of mortality of tick nymphs (moribund or dead nymphs)
[22] = nymphs, 48 h, read-out: average percentage of mortality of tick nymphs (moribund or dead nymphs)
[23] = nymphs, 72 h, read-out: average percentage of mortality of tick nymphs (moribund or dead nymphs)
[24] = nymphs, 96 h, read-out: average percentage of mortality of tick nymphs (moribund or dead nymphs)
[25] = nymphs, 100 ppm, 1 h, read-out: average percentage of mortality of tick nymphs (moribund or dead nymphs)
[26] = nymphs, 100 ppm, 3 h, read-out: average percentage of mortality of tick nymphs (moribund or dead nymphs)
[27] = nymphs, 100 ppm, 6 h, read-out: average percentage of mortality of tick nymphs (moribund or dead nymphs)
[28] = nymphs, 100 ppm, 12 h, read-out: average percentage of mortality of tick nymphs (moribund or dead nymphs)
[29] = nymphs, 100 ppm, 24 h, read-out: average percentage of mortality of tick nymphs (moribund or dead nymphs)
[30] = nymphs, 100 ppm, 48 h, read-out: average percentage of mortality of tick nymphs (moribund or dead nymphs)
[31] = nymphs, 100 ppm, 72 h, read-out: average percentage of mortality of tick nymphs (moribund or dead nymphs)
[32] = nymphs, 100 ppm, 96 h, read-out: average percentage of mortality of tick nymphs (moribund or dead nymphs)

Cc1cccc(C(C)c2cnc[nH]2)c1C (racemic) [Medetomidine hydrochloride]
effect in terms of tick detachment (in words) (1, 10, 100 ppm, nymphs and adults): very limited effect | mortality at 1 ppm [1]: 0% | mortality at 1 ppm [2]: 0% | mortality at 1 ppm [3]: 2.3% | mortality at 1 ppm [4]: 7.3% | mortality at 1 ppm [5]: 47.6% | mortality at 1 ppm [6]: 97.7% | mortality at 1 ppm [7]: 100% | mortality at 1 ppm [8]: 100% | mortality at 10 ppm [1]: 0% | mortality at 10 ppm [2]: 0% | mortality at 10 ppm [3]: 9.6% | mortality at 10 ppm [4]: 9.6% | mortality at 10 ppm [5]: 53.9% | mortality at 10 ppm [6]: 91.2% | mortality at 10 ppm [7]: 100% | mortality at 10 ppm [8]: 100% | mortality at 100 ppm [9]: 0% | mortality at 100 ppm [10]: 0% | mortality at 100 ppm [11]: 12.5% | mortality at 100 ppm [12]: 18.1% | mortality at 100 ppm [13]: 53.1% | mortality at 100 ppm [14]: 84.7% | mortality at 100 ppm [15]: 93.8% | mortality at 100 ppm [16]: 100% | mortality at 1 ppm [17]: 0% | mortality at 1 ppm [18]: 0% | mortality at 1 ppm [19]: 19.5% | mortality at 1 ppm [20]: 38.9% | mortality at 1 ppm [21]: 61.8% | mortality at 1 ppm [22]: 93.9% | mortality at 1 ppm [23]: 100% | mortality at 1 ppm [24]: 100% | mortality at 10 ppm [17]: 0% | mortality at 10 ppm [18]: 10.4% | mortality at 10 ppm [19]: 38.4% | mortality at 10 ppm [20]: 58.5% | mortality at 10 ppm [21]: 78.7% | mortality at 10 ppm [22]: 85% | mortality at 10 ppm [23]: 95.8% | mortality at 10 ppm [24]: 100% | mortality at 100 ppm [25]: 0% | mortality at 100 ppm [26]: 9.1% | mortality at 100 ppm [27]: 38.5% | mortality at 100 ppm [28]: 69.2% | mortality at 100 ppm [29]: 94.4% | mortality at 100 ppm [30]: 100% | mortality at 100 ppm [31]: 100% | mortality at 100 ppm [32]: 100% | ticks affected (convulsion, morbidity or death of ticks) (from 1 hour of exposure, regardless of the concentration tested (1, 10, 100 ppm)): 100%

Cc1ccc(/N=C/N(C)/C=N/c2ccc(C)cc2C)c(C)c1 [Amitraz]
average percentage of affected adult ticks (convulsion, morbidity or death of ticks) (adult ticks, 1 h): 66.8% | average percentage of affected adult ticks (convulsion, morbidity or death of ticks) (adult ticks, 3 h): 56.2% | average percentage of affected adult ticks (convulsion, morbidity or death of ticks) (adult ticks, 6 h): 53.7% | average percentage of affected adult ticks (convulsion, morbidity or death of ticks) (adult ticks, 12 h): 56.2% | average percentage of affected adult ticks (convulsion, morbidity or death of ticks) (adult ticks, 24 h): 66.5% | average percentage of affected adult ticks (convulsion, morbidity or death of ticks) (adult ticks, 48 h): 83.1% | average percentage of affected adult ticks (convulsion, morbidity or death of ticks) (adult ticks, 72 h): 100.0% | average percentage of affected adult ticks (convulsion, morbidity or death of ticks) (adult ticks, 96 h): 100.0% | detachment of adult ticks (in words) (100 ppm, adult ticks): strong detachment | average percentage of attached adult ticks (100 ppm, adult ticks, 1 h): 66.8% | average percentage of attached adult ticks (100 ppm, adult ticks, 3 h): 56.2% | average percentage of attached adult ticks (100 ppm, adult ticks, 6 h): 53.7% | average percentage of attached adult ticks (100 ppm, adult ticks, 12 h): 53.7% | average percentage of attached adult ticks (100 ppm, adult ticks, 24 h): 53.7% | average percentage of attached adult ticks (100 ppm, adult ticks, 48 h): 53.7% | average percentage of attached adult ticks (100 ppm, adult ticks, 72 h): 53.7% | average percentage of attached adult ticks (100 ppm, adult ticks, 96 h): 53.7% | effect on nymphs (convulsion, morbidity or death), in words (100 ppm, nymphs, compared with SN0305, SN0306, SN0307): comparable result | mortality at 100 ppm [9]: 0% | mortality at 100 ppm [10]: 2.8% | mortality at 100 ppm [11]: 10.1% | mortality at 100 ppm [12]: 17.4% | mortality at 100 ppm [13]: 27.7% | mortality at 100 ppm [14]: 58.9% | mortality at 100 ppm [15]: 84.6% | mortality at 100 ppm [16]: 97.5% | mortality at 100 ppm [25]: 0% | mortality at 100 ppm [26]: 14% | mortality at 100 ppm [27]: 38.7% | mortality at 100 ppm [28]: 74.9% | mortality at 100 ppm [29]: 100% | mortality at 100 ppm [30]: 100% | mortality at 100 ppm [31]: 100% | mortality at 100 ppm [32]: 100%
